The results in this text go back to patent US12629410B2, “Multi-antigenic peptide mimics of gonococcal lipo-oligosaccharide (LOS) epitopes” (priority 2019, dated 2026).

The subject of experiment [1] is LOS purified from N. gonorrhoeae strain 15253. In kind it is in vivo.
Experiment [2] deals with mAb 2C7. The experiment in a line: Inhibition ELISA: inhibition of mAb 2C7 binding to immobilized gonococcal LOS. To be noted: for comparative ability to inhibit mAb 2C7 binding to LOS (antigenicity): ranking within the set of peptides tested. The text has this: FIGS. 1A-1B show the structure and characterization of one of the peptide mimics described herein (also referred to as TMCP2). […] The 2C7 mimitope is indicated in shown as the sequence “H2C-CO-GPIPVLDENGLFAPGPC” (SEQ ID NO: 1) Cyclization is maintained through a thioether bond. The reverse peptide mimic core is represented the schematic of the peptide mimic as “Ac-β-Ala-Glu[Glu-OH]2.” The reverse peptide mimic core links to each cyclic peptide through a lysine (K) residue.
In order to compare antigenicity of peptide mimic Core Peptide 2 (monomeric cyclic CP2) and composite TMCP2 compounds with LOS that expresses the 2C7 epitope, inhibition ELISA was performed using mAb 2C7 reacted with the individual compounds to assess inhibition of binding (residual binding) of mAb to LOS by each compound. Microtiter wells were coated with LOS (80 μg/ml in PBS) purified from strain FA1090. Wells were washed and blocked with PBS-0.05% Tween 20. mAb 2C7 (0.04 μg/ml) either alone or containing monomeric cyclic peptide CP2 (1.07 to 1070 μM) or composite TMCP2 (concentrations ranging from […]) was dispended into LOS coated wells. Residual binding of 2C7 mAb was measured with anti-mouse IgG conjugated to alkaline phosphatase. Bound IgG was quantitated using a mouse IgG standard curve and percent inhibition determined compared to reaction mixtures that […].
Attempts to measure mAb 2C7 (7) binding directly to immobilized peptide mimic Core Peptide 2 (abbreviated CP2 in FIG. 1A) and composite TMCP2 by ELISA were not successful. The possibility of poor capture of the peptides by the microtiter wells was considered and therefore used an ELISA to measure inhibition of binding (residual binding) of mAb 2C7 to immobilized gonococcal LOS that had been reacted with increasing concentrations of the peptides (FIG. 1B).
Background: In an ELISA, binding on a coated surface is turned into a signal by an enzyme label.

The mark [3] stands for this setting: earlier peptide constructs, FIG. 18 and FIG. 19.

Entries after “also recorded” stand apart in the source; their conditions may differ. Like-named read-outs stand apart in the source and are kept apart here. Bridges are numbered along the chain shown (N, C = ends). Primed or numbered codes have the meaning given here. Where no end group is shown, it is not given here. [ ]: non-standard residue; d: D form. PEG2′ = two-unit polyethylene glycol spacer; PEG2″ = not defined here

“(CGPIPVLDENGLFAPGPC)4(Lys)2Lys-β-Ala-COOH [Tetra MAP 1.1]”: the “immunogenicity in BALB/c mice (IgG against 2C7+ LOS by ELISA)” value (“immunogenicity in BALB/c mice” for short) in experiment [1] (in vivo) was “Neither compound was superior; also recorded: elicited similar anti-LOS Ab levels as Tetra”. Take “(CH2-CO-GPIPVLDENGLFAPGPC)-K-OH ({CH2CO}-GPIPVLDENGLFAPGPCK-OH; thioether N-17; SMILES CC[C@H](C)[C@@H]1NC(=O)[C@@H]2CCCN2C(=O)CNC(=O)CSC[C@@H](C(=O)N[C@@H](CCCCN)C(=O)O)NC(=O)[C@@H]2CCCN2C(=O)CNC(=O)[C@@H]2CCCN2C(=O)[C@H](C)NC(=O)[C@H](Cc2ccccc2)NC(=O)[C@H](CC(C)C)NC(=O)CNC(=O)[C@H](CC(N)=O)NC(=O)[C@H](CCC(=O)O)NC(=O)[C@H](CC(=O)O)NC(=O)[C@H](CC(C)C)NC(=O)[C@H](C(C)C)NC(=O)[C@@H]2CCCN2C1=O) [CP2]”: the IC50 in experiment [2] (mAb 2C7 0.04 μg/ml, LOS-coated wells, read-out: concentration giving 50% inhibition of mAb 2C7 binding to immobilized 15253 LOS) turned out to be 107 µM.

On to “(KIPVLDENGLFAP-PEG2-KK)4-MAP4 [Tetra MAP 3.1]”, for which the “immunogenicity in BALB/c mice” value in experiment [1] (in vivo) is “poorly immunogenic”.

With “(KIPVLDENGLFAP-PEG2-KKC)4-Maleimide4-MAP4 (KIPVLDENGLFAP[PEG2″]KKC; also: four copies on a maleimide MAP4 core) [TetraMAP 3.2]”, the “immunogenicity in BALB/c mice” value in experiment [1] (setting [3]) was “poorly immunogenic”. On to “KIPVLDENGLFAP (SEQ ID NO: 3)-PEG2-KK (KIPVLDENGLFAP[PEG2′]KK) [Mod3]”, for which the “comparative ability to inhibit mAb 2C7 binding to LOS (antigenicity)” value in experiment [2] (listed as Mod 3) is reported as “most antigenic”. “KIPVLDENGLFAP-D Lys-D Lys4-K2-K-MAP4 (not fully specified (C-terminus); also: four copies on a branched Lys (K2-K) MAP4 core) [TetraMAP 3.3]”: the “immunogenicity in BALB/c mice” value in experiment [1] (setting [3]) was “poorly immunogenic”. Take “KIPVLDENGLFAPAAAGGKIPVLDENGLFAP [Mod3 linear dimer #2]”: the “comparative ability to inhibit mAb 2C7 binding to LOS (antigenicity)” value in experiment [2] (listed as Mod3 linear dimer with AAAGG (SEQ ID NO: 5) linker) is given as “better than the molecule with the AG linker”. In addition, the “immunogenicity in BALB/c mice” value in experiment [1] (earlier peptide constructs, FIG. 18 and FIG. 19, listed as 16) is reported as “non-immunogenic”; in experiment [1] (earlier peptide constructs, FIG. 18 and FIG. 19, listed as Mod3 linear dimer with AAAGG (SEQ ID NO: 5) linker), “neither were immunogenic”. Regarding “KIPVLDENGLFAPGPC-D Lys-D Lys4-K2-K-MAP4 (not fully specified (C-terminus); also: four copies on a branched Lys (K2-K) MAP4 core) [TetraMAP 3.4]”, in experiment [1] (setting [3]), the “immunogenicity in BALB/c mice” value is “poorly immunogenic”.

On to “KIPVLDENGLFAPGSKIPVLDENGLFAP [Mod3 linear dimer #1]”, for which the “immunogenicity in BALB/c mice” value in experiment [1] (earlier peptide constructs, FIG. 18 and FIG. 19, listed as 15) is “non-immunogenic”; in experiment [1] (earlier peptide constructs, FIG. 18 and FIG. 19, listed as Mod3 linear dimer with GS linker), “neither were immunogenic”. On to “SGPIPVLDENGLFAPGPC)4(Lys)2Lys-β-Ala-COOH [Tetra MAP 1.2]”, for which the “immunogenicity in BALB/c mice” value in experiment [1] (in vivo) is recorded as “Neither compound was superior”. Consider “[Ac-(CGPIPVLDENGLFAPGPC)-K-OH]4 (Ac-CGPIPVLDENGLFAPGPCK-OH; disulfide 1-18; also: tetrameric reverse MAP core) [TMCP3, disulfide-cyclized peptides on reverse MAP core]”, for which the “comparative ability to inhibit mAb 2C7 binding to LOS (antigenicity)” value in experiment [2] was “bound best”. The “anti-LOS titers in immunization experiments” value in experiment [1] (tetrapeptides 50 μg/dose plus Sigma MPL adjuvant, BALB/c, FIG. 10) is “higher anti-LOS titers than TMCP4”.
